Source: US9604988B2, “Agent for treating or inhibiting recurrence of acute myeloid leukemia” (RIKEN, priority 2012, dated 2017)
Where a name gives a salt, the structure may show the parent alone.

How the values were obtained:
HCK = HCK (Homo sapiens, UniProt P08631); assay: HCK kinase inhibition; assay type: biochemical
FLT3-ITD = target: T1, FLT3-ITD (Homo sapiens, UniProt P36888, ITD); assay: FLT3-ITD kinase inhibition; assay type: biochemical
T1 sequence (P36888 27-993): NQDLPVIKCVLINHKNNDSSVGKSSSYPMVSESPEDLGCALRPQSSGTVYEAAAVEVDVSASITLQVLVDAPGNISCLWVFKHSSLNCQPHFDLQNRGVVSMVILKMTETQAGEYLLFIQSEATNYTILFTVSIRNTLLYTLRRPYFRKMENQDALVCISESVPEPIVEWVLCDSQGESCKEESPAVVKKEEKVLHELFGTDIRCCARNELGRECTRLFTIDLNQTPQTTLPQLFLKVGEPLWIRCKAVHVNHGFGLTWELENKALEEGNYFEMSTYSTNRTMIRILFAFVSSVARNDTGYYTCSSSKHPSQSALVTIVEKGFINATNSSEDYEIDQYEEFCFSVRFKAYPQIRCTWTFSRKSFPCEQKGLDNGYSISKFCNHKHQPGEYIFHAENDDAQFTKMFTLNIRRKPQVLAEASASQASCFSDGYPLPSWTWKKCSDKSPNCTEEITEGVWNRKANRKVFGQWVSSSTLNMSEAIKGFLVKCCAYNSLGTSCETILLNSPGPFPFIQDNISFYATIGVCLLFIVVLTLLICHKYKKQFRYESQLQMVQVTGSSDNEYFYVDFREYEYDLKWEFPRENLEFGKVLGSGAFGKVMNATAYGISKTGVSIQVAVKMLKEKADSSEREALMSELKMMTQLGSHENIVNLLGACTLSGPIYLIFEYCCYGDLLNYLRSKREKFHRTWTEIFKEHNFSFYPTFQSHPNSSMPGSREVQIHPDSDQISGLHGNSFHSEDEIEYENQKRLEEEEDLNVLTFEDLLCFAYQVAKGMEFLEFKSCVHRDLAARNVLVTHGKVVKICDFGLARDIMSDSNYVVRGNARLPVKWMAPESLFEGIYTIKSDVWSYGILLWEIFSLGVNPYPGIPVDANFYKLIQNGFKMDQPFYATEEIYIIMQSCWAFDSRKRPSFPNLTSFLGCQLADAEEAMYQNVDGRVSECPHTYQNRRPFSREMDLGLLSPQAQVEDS

Chain of HCK (P08631 whole entry): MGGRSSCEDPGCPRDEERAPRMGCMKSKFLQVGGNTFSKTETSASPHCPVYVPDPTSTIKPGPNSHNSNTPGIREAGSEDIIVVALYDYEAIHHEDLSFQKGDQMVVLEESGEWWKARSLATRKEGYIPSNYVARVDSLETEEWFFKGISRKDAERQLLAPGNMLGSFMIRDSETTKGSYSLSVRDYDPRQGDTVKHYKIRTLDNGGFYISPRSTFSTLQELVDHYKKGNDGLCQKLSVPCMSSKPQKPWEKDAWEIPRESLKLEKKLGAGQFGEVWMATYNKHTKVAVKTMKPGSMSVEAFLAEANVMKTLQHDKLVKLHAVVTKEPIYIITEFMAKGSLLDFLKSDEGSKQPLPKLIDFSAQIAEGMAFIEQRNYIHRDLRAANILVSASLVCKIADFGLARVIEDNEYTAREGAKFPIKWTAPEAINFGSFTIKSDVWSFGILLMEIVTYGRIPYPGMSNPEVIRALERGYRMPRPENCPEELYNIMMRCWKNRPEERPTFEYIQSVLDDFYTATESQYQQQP

Row | IC50 (HCK) [nM] | IC50 (FLT3-ITD) [nM] | Structure (SMILES)
1 | 4 | 44 | Nc1ncnc2c1c(-c1ccc(Oc3ccccc3)cc1)cn2[C@H]1CC[C@@H](NC(=O)c2ccncc2)CC1 [Example 12, N-((cis)-4-(4-5-(4-Phenoxyphenyl)-7H-pyrrolo[2,3-d]pyrimidin-7-yl)cyclohexyl)isonicotinamide]
2 | 8 | 17 | CC(C)(C)N1CCN([C@H]2CC[C@H](n3cc(-c4ccc(Oc5ccccc5)cc4)c4c(N)ncnc43)CC2)CC1 [Example 13, 7-((trans)-4-(4-(tert-Butyl)piperazin-1-yl)cyclohexyl)-5-(4-phenoxyphenyl)-7H-pyrrolo[2,3-d]pyrimidin-4-amine]
3 | 0.77 | 2750 | COc1cc(-c2nn([C@H]3CC[C@H](N4CCN(C)CC4)CC3)c3ncnc(N)c23)ccc1NC(=O)c1cc2ccccc2n1C [Example 14, N-(4-(4-amino-1-((trans)-4-(4-methylpiperazin-1-yl)cyclohexyl)-1H-pyrazolo[3,4-d]pyrimidin-3-yl)-2-methoxyphenyl)-1-methyl-1H-indole-2-carboxamide]
4 | 4.9 |  | COc1cc(-c2cn([C@H]3CC[C@@H](N4CCn5c(C)nnc5C4)CC3)c3ncnc(N)c23)ccc1NC(=O)c1cc2ccccc2n1C [Example 16, N-(4-(4-amino-7-((cis)-4-(3-methyl-5,6-dihydro[1,2,4]triazolo[4,3-a]pyrazin-7(8H)-yl)cyclohexyl)-7H-pyrrolo[2,3-d]pyrimidin-5-yl)-2-methoxyphenyl)-1-methyl-1H-indole-2-carboxamidamide]
5 | 2.55 | 255 | CN1CCN([C@H]2CC[C@H](n3cc(-c4ccc(NC(=O)c5cc6ccccc6n5C)cc4)c4c(N)ncnc43)CC2)CC1 [Example 17, N-(4-(4-amino-7-((trans)-4-(4-methylpiperazin-1-yl)cyclohexyl)-7H-pyrrolo[2,3-d]pyrimidin-5-yl)phenyl)-1-methyl-1H-indole-2-carboxamide]
6 | 4.55 | 428 | Nc1ncnc2c1c(-c1ccc(Oc3ccccc3)cc1)cn2[C@H]1CC[C@H](NC(=O)c2ccccn2)CC1 [Example 18, N-((trans)-4-(4-amino-5-(4-phenoxyphenyl)-7H-pyrrolo[2,3-d]pyrimidin-7-yl)cyclohexyl)picolinamide]
7 | 11.9 | 108 | Nc1ncnc2c1c(-c1ccc(Oc3ccccc3)cc1)cn2[C@H]1CC[C@H](NC(=O)c2cccnc2)CC1 [Example 19, N-((trans)-4-(4-amino-5-(4-phenoxyphenyl)-7H-pyrrolo[2,3-d]pyrimidin-7-yl)cyclohexyl)nicotinamide]
8 | 7.9 | 414 | Nc1ncnc2c1c(-c1ccc(Oc3ccccc3)cc1)nn2[C@H]1CC[C@H](NC(=O)c2ccncc2)CC1 [Example 20, N-((trans)-4-(4-amino-3-(4-phenoxyphenyl)-1H-pyrazolo[3,4-d]pyrimidin-1-yl)cyclohexyl)isonicotinamide]
9 | 12 | 548 | Nc1ncnc2c1c(-c1ccc(Oc3ccccc3)cc1)nn2[C@H]1CC[C@H](NC(=O)c2ccccn2)CC1 [Example 23, N-((trans)-4-(4-amino-3-(4-phenoxyphenyl)-1H-pyrazolo[3,4-d]pyrimidin-1-yl)cyclohexyl)picolinamide]
10 | 7.2 | 1330 | COc1cc(-c2cn([C@H]3CC[C@@H](N4CCN(C)CC4)CC3)c3ncnc(N)c23)ccc1NC(=O)c1cc2ccccc2n1C [Example 26, N-(4-(4-amino-7-((cis)-4-(4-methylpiperazin-1-yl)cyclohexyl)-7H-pyrrolo[2,3-d]pyrimidin-5-yl)-2-methoxyphenyl)-1-methyl-1H-indole-2-carboxamide]
11 | 1.6 | 1080 | CN1CCN([C@H]2CC[C@H](n3nc(-c4ccc(NC(=O)c5cc6ccccc6n5C)cc4)c4c(N)ncnc43)CC2)CC1 [Example 28, N-(4-(4-amino-1-((trans)-4-(4-methylpiperazin-1-yl)cyclohexyl)-1H-pyrazolo[3,4-d]pyrimidin-3-yl)phenyl)-1-methyl-1H-indole-2-carboxamide]
12 | 7.7 |  | COc1cc(-c2cn([C@H]3CC[C@H](N4CCn5c(nnc5C(F)(F)F)C4)CC3)c3ncnc(N)c23)ccc1NC(=O)c1cc2ccccc2n1C [Example 30, N-(4-(4-amino-7-((trans)-4-(3-(trifluoromethyl)-5,6-dihydro[1,2,4]triazolo[4,3-a]pyrazin-7(8H)-yl)cyclohexyl)-7H-pyrrolo[2,3-d]pyrimidin-5-yl)-2-methoxyphenyl)-1-methyl-1H-indole-2-carboxamide]
13 | 11 |  | CCc1nnc2n1CCN([C@H]1CC[C@@H](n3cc(-c4ccc(NC(=O)c5cc6ccccc6n5C)c(OC)c4)c4c(N)ncnc43)CC1)C2 [Example 31, N-(4-(4-amino-7-((cis)-4-(3-ethyl-5,6-dihydro[1,2,4]triazolo[4,3-a]pyrazin-7(8H)-yl)cyclohexyl)-7H-pyrrolo[2,3-d]pyrimidin-5-yl)-2-methoxyphenyl)-1-methyl-1H-indole-2-carboxamide]
14 | 14 |  | CCc1nnc2n1CCN([C@H]1CC[C@H](n3cc(-c4ccc(NC(=O)c5cc6ccccc6n5C)c(OC)c4)c4c(N)ncnc43)CC1)C2 [Example 32, N-(4-(4-amino-7-((trans)-4-(3-ethyl-5,6-dihydro[1,2,4]triazolo[4,3-a]pyrazin-7(8H)-yl)cyclohexyl)-7H-pyrrolo[2,3-d]pyrimidin-5-yl)-2-methoxyphenyl)-1-methyl-1H-indole-2-carboxamide]
15 | 7.7 |  | COc1cc(-c2cn([C@H]3CC[C@@H](N4CCn5c(nnc5C(C)C)C4)CC3)c3ncnc(N)c23)ccc1NC(=O)c1cc2ccccc2n1C [Example 33, N-(4-(4-amino-7-((cis)-4-(3-isopropyl-5,6-dihydro[1,2,4]triazolo[4,3-a]pyrazin-7(8H)-yl)cyclohexyl)-7H-pyrrolo[2,3-d]pyrimidin-5-yl)-2-methoxyphenyl)-1-methyl-1H-indole-2-carboxamide]
16 | 7.7 |  | COc1cc(-c2cn([C@H]3CC[C@H](N4CCn5c(nnc5C(C)C)C4)CC3)c3ncnc(N)c23)ccc1NC(=O)c1cc2ccccc2n1C [Example 34, N-(4-(4-amino-7-((trans)-4-(3-isopropyl-5,6-dihydro[1,2,4]triazolo[4,3-a]pyrazin-7(8H)-yl)cyclohexyl)-7H-pyrrolo[2,3-d]pyrimidin-5-yl)-2-methoxyphenyl)-1-methyl-1H-indole-2-carboxamide]
17 | 4 | 409 | COc1cc(-c2cn([C@H]3CC[C@H](N4CCn5c(cnc5C)C4)CC3)c3ncnc(N)c23)ccc1NC(=O)c1cc2ccccc2n1C [Example 36, N-(4-(4-amino-7-((trans)-4-(3-methyl-5,6-dihydroimidazolo[1,5-a]pyrazin-7(8H)-yl)cyclohexyl)-7H-pyrrolo[2,3-d]pyrimidin-5-yl)-2-methoxyphenyl)-1-methyl-1H-indole-2-carboxamide]

Row | Structure (SMILES) | IC50 (HCK) [nM] | IC50 (FLT3-ITD) [nM]
18 | Nc1ncnc2c1c(-c1ccc(Oc3ccccc3)cc1)cn2[C@H]1CC[C@H](NCC(=O)O)CC1 [Example 3, 2-(((trans)-4-(4-Amino-5-(4-phenoxyphenyl)-7H-pyrrolo[2,3-d]pyrimidin-7-yl)cyclohexyl)amino)acetic acid.trihydrochloride] | 4.2 | 24
19 | Nc1ncnc2c1c(-c1ccc(Oc3ccccc3)cc1)cn2[C@H]1CC[C@@H](NCc2ccncc2)CC1 [Example 5, 5-(4-phenoxyphenyl)-7-((cis)-4-((pyridin-4-ylmethyl)amino)cyclohexyl)-7H-pyrrolo[2,3-d]pyrimidin-4-amine] |  | 6.6
20 | Nc1ncnc2c1c(-c1ccc(Oc3ccccc3)cc1)cn2[C@H]1CC[C@@H](NCC(=O)O)CC1 [Example 9, 2-(((cis)-4-(4-Amino-5-(4-phenoxyphenyl)-7H-pyrrolo[2,3-d]pyrimidin-7-yl)cyclohexyl)amino)acetic acid.trihydrochloride] | 16 | 23
21 | NC(=O)CN[C@H]1CC[C@@H](n2cc(-c3ccc(Oc4ccccc4)cc3)c3c(N)ncnc32)CC1 [Example 10, 2-(((cis)-4-(4-Amino-5-(4-phenoxyphenyl)-7H-pyrrolo[2,3-d]pyrimidin-7-yl)cyclohexyl)amino)acetamide] |  | 23
22 | NC(=O)CN[C@H]1CC[C@H](n2cc(-c3ccc(Oc4ccccc4)cc3)c3c(N)ncnc32)CC1 [Example 11, 2-(((trans)-4-(4-Amino-5-(4-phenoxyphenyl)-7H-pyrrolo[2,3-d]pyrimidin-7-yl)cyclohexyl)amino)acetamide] |  | 23
23 | Nc1ncnc2c1c(-c1ccc(Oc3ccccc3)cc1)cn2[C@H]1CC[C@H](N[C@H]2CCNC2=O)CC1 [Example 54, (S)-3-(((trans)-4-(4-amino-5-(4-phenoxyphenyl)-7H-pyrrolo[2,3-d]pyrimidin-7-yl)cyclohexyl)amino)pyrrolidin-2-one] |  | 25
